According to US12662504B2, “High-solubility rebaudioside D complex” (SUNTORY HOLDINGS LIMITED, priority 2019, dated 2026):
Peptide text beside a SMILES is read from it.

Tested on: not given
Assay: not given
Assay type: physicochemical
Conditions: not given
Text: In an embodiment of the present invention, the content of Reb. D in the complex is an amount equal to or less than the saturation solubility relative to the at least one compound selected from the carbohydrates and the water-soluble vitamins and the salts thereof. The saturation solubility means an amount (mg) with which Reb. D is no longer dissolved in a melt of 1 g of the at least one compound selected from the carbohydrates and the water-soluble vitamins and the salts thereof. The saturation solubility varies depending on the type of the compound and the temperature of the melt, but can be easily and accurately confirmed by actually forming a melt and dissolving Reb. D therein. For example, when forming a melt by using erythritol, 112 mg of Reb. D is dissolved in 1 g of erythritol at 190° C. (i.e., 112 mg/g).

Compound	saturation solubility of Reb. D in erythritol melt [mg/g]
C=C1C[C@@]23CC[C@H]4[C@@](C)(CCC[C@@]4(C)C(=O)O[C@@H]4OC(CO)[C@@H](O)C(O)C4O[C@@H]4OC(CO)[C@@H](O)C(O)C4O)[C@@H]2CC[C@]1(O[C@@H]1OC(CO)[C@@H](O)C(O[C@@H]2OC(CO)[C@@H](O)C(O)C2O)C1O[C@@H]1OC(CO)[C@@H](O)C(O)C1O)C3 (some centres unmarked) [Reb. D, rebaudioside D]	112

Tested on: panelists trained about sensory attributes of sweeteners
Assay: Evaluation of flavor by trained panelists (Example Q)
Assay type: in vivo
Conditions: 300 mg/L in terms of Reb. A or Reb. D; sucrose 9 SEV; 5 panelists; 0 to 6 points, sucrose control = 3
Procedure: In order to confirm effects of the three-component complex of erythritol/Reb. D/fructose, evaluation of flavor was made. Reb. A and Reb. D were also used, and sucrose was used as a control. Each of a two-component complex and a three-component complex was prepared as a solid according to the method of the working example so that about 3.6% of Reb. D was contained. Each of the complexes or Reb. A was subjected to adjustment by adding water thereto in a manner such that the amount in terms of Reb. A or Reb. D became 300 mg/L. The concentration of the sucrose solution was adjusted to be 9 SEV (sucrose equivalent value). Evaluation of taste quality was made by panelists trained about sensory attributes of sweeteners (5 members). The respective items of evaluation of flavor (on-set speed, lingering sweet aftertaste, bitterness intensity, lingering bitter aftertaste and comprehensive evaluation) were scored in a range of 0 to 6 points. As a reference, sucrose alone was used as a control (3 points). 6 points means high on-set speed of sweetness, short lingering sweet aftertaste, low bitterness intensity, short lingering bitter aftertaste and satisfactory overall evaluation.

Compound	Bitterness intensity [points]	Comprehensive evaluation [points]	Lingering bitter aftertaste [points]	Lingering sweet aftertaste [points]	On-set speed [points]
OC[C@H]1O[C@@](CO)(O[C@H]2O[C@H](CO)[C@@H](O)[C@H](O)[C@H]2O)[C@@H](O)[C@@H]1O [Sucrose]	3.00	3.00	3.00	3.00	3.00
C=C1C[C@@]23CC[C@H]4[C@@](C)(CCC[C@@]4(C)C(=O)O[C@@H]4O[C@H](CO)[C@@H](O)[C@H](O)[C@H]4O)[C@@H]2CC[C@]1(O[C@@H]1O[C@H](CO)[C@@H](O)[C@H](O[C@@H]2O[C@H](CO)[C@@H](O)[C@H](O)[C@H]2O)[C@H]1O[C@@H]1O[C@H](CO)[C@@H](O)[C@H](O)[C@H]1O)C3 [Reb. A, rebaudioside A]	2.10	1.70	1.70	1.70	2.60
C=C1C[C@@]23CC[C@H]4[C@@](C)(CCC[C@@]4(C)C(=O)O[C@@H]4OC(CO)[C@@H](O)C(O)C4O[C@@H]4OC(CO)[C@@H](O)C(O)C4O)[C@@H]2CC[C@]1(O[C@@H]1OC(CO)[C@@H](O)C(O[C@@H]2OC(CO)[C@@H](O)C(O)C2O)C1O[C@@H]1OC(CO)[C@@H](O)C(O)C1O)C3 (some centres unmarked) [Reb. D, rebaudioside D]	2.10	2.20	2.40	2.50	2.40

Tested on: not listed separately
Assay: Evaluation of melting/dissolution (Example A): melting of auxiliary raw material and dissolution of Reb. D in the melt
Conditions: not given
Procedure: The meltability of a raw material to be combined with Reb. D (hereinafter also referred to as “the auxiliary raw material”) and the solubility of Reb. D were evaluated, and the auxiliary raw material with which the complex of the present invention can be obtained was examined. As the auxiliary raw material, raw materials described in the table below were selected from food additives that can be added to beverages. The raw materials used for forming the complex are as follows: Reb. D formulation (purity: 95% (w/w), manufactured by Jining Renewal and Joint International); D-allulose (purity: 99%+), arabinose (purity: 98%+), fructose (purity: 99%+), glucose (purity: 99%+), maltose monohydrate (purity: 95%+), mannitol (purity: 99%+), mannose (purity: 98%+), rhamnose (purity: 98%+), ribose (purity: 98%+), sucrose (purity: 99%+), xylitol (purity: 98%+) and xylose (purity: 98%+), trehalose dihydrate (purity: 98%+), sodium pantothenate (purity: 98%+) (each manufactured by NACALAI TESQUE, INC.); and erythritol (purity: 98% (w/w), manufactured by Mitsubishi-Chemical Foods Corporation). Also in the subsequent working examples, the raw materials described above were used unless otherwise stated.
The auxiliary raw material described in Table 1 was mixed with 100 mg of Reb. D formulation (purity: 95% (w/w)) in a heat-resistant vial, the temperature was elevated to the melting point of the auxiliary raw material or higher, and it was confirmed whether or not the auxiliary raw material was melted. After melting of the auxiliary raw material and dissolution of the Reb. D formulation were visually confirmed, the mixture was rapidly cooled in ice and stored at 10° C. The weight of the auxiliary raw material was adjusted based on the amount that enables dissolution of Reb. D. The weight of D-allulose (another name: D-psicose) was 2,000 mg, the weight of L-glutamine was 1,000 mg, the weight of vitamin D3 was 1,144 mg, and the weight of an auxiliary raw material other than those was 4,000 mg. The case where it was recognized that the auxiliary raw material was melted and that Reb. D was dissolved (including the case where dissolution was visually recognized more when compared to the point of adding (complete dissolution is not required)) was evaluated as “O”, and the case where it was not recognized that the auxiliary raw material was melted even at a temperature equal to or higher than the melting point of the auxiliary raw material, or the case where it was not recognized that Reb. D was dissolved though the auxiliary raw material was successfully melted (after the addition, change in outer appearance was not visually recognized) was evaluated as “X”.

Compound	Melting/dissolution
OC[C@@H](O)[C@@H](O)[C@H](O)[C@H](O)CO [Mannitol]	◯
OC[C@@H](O)[C@@H](O)CO [Erythritol]	◯
O=C[C@@H](O)[C@H](O)[C@H](O)CO [Arabinose]	◯
OC[C@H]1O[C@@](CO)(O[C@H]2O[C@H](CO)[C@@H](O)[C@H](O)[C@H]2O)[C@@H](O)[C@@H]1O [Sucrose]	◯
NC(=O)CC[C@H](N)C(=O)O [L-glutamine]	◯
O=C[C@H](O)[C@@H](O)[C@H](O)CO [Xylose]	◯
O=C(O)CC(O)C(=O)O (racemic) [DL-malic acid]	◯
OC[C@@H](O)[C@@H](O[C@H]1O[C@H](CO)[C@@H](O)[C@H](O)[C@H]1O)[C@H](O)[C@@H](O)CO [Maltitol]	◯
C[C@H](O)[C@H](O)[C@@H](O)[C@@H](O)C=O [Rhamnose]	◯
CC(C)(CO)[C@@H](O)C(=O)NCCC(=O)[O-].[Na+] [Sodium pantothenate]	◯
O=C[C@H](O)[C@H](O)[C@H](O)CO [Ribose]	◯
OC[C@H]1O[C@H](O[C@H]2[C@H](O)[C@@H](O)C(O)O[C@@H]2CO)[C@H](O)[C@@H](O)[C@@H]1O (mixture of isomers) [Maltose]	◯
O=C(CO)[C@H](O)[C@H](O)[C@H](O)CO [D-allulose]	◯
OC[C@@H](O)[C@H](O)[C@@H](O)CO [Xylitol]	◯
O=C(CO)[C@@H](O)[C@H](O)[C@H](O)CO [Fructose]	◯

Same assay, conditions: auxiliary raw material mixed with 100 mg of Reb. D formulation, heated to melting point or higher, visual

Compound	Melting/dissolution
C=C1CC[C@H](O)C/C1=C/C=C1\CCC[C@]2(C)[C@@H]([C@H](C)CCCC(C)C)CC[C@@H]12 [Vitamin D3]	◯

Tested on: not given
Assay: not given
Conditions: times the sweetness of sugar / sucrose; cited from earlier work

Compound	sweetness relative to sugar (sucrose)
COC(=O)[C@H](Cc1ccccc1)NC(=O)[C@@H](N)CC(=O)O [aspartame] (H-Asp-Phe-OMe)	about 180 times
OC[C@H]1O[C@H](O[C@]2(CCl)O[C@H](CCl)[C@@H](O)[C@@H]2O)[C@H](O)[C@@H](O)[C@H]1Cl [sucralose]	about 600 times
CC1=CC(=O)NS(=O)(=O)O1 [acesulfame potassium]	about 200 times
